We go through seven compounds from patent US9872824B2, “Semi-permanent hair straightening composition and method” (Lubrizol Advanced Materials, Inc., priority 2013, dated 2018).

The nature of series [1]: Solution dipping, flat-iron thermal straightening, imaging analysis of tress length and width. To be noted: for Ranking for semi-permanent thermal straightening efficiency: from imaging analysis data; for Comparative straightening behaviour in words: imaging analysis data. Also on record: species or system human. The procedure: (§1) This method is used primarily to screen and select candidate molecules as possible thermally-activated agents. Typically, a solution of the candidate molecule is prepared in a suitable solvent system. The hair-tress is immersed completely in the solution with controlled concentration of candidate thermally-activated agent, pH, temperature and soaking time, such as for up to 60 minutes. Then, the hair-tress is removed from the solution, excess amount of material squeezed out, and the tress is blow-dried to at least 95% dryness before thermal straightening.
2. Image Analysis: the method can be used to quantify the curly hair-tress thermal straightening efficiency for different treatments. Measurements of tress length and width at half-length can be made with this method.
As for other tests, a curly hair-tress was completely immersed in an aqueous solution of a selected one of the small molecules and soaked for 45 minutes. Each solution contained an equimolar amount of the selected small molecule. The hair-tress was then removed from the solution, excess water was squeezed out manually, and the hair dried by a blower dryer to the desired dryness before thermal straightening, as described above.
The imaging analysis method was used to measure the total length and width of the hair-tress before and after the thermal straightening process, and after each shampoo-wash-cycle. More specifically, photographs of hair tresses or bundles of hair tresses were taken against a solid color background with a tripod-mounted digital camera. Illumination was selected to minimize shadows which could affect measurements. The tress was hung from a spindle that enabled the tress to be rotated 90 degrees so that pictures could be taken from four different angles, providing a full view of the tress, with a ruler mounted close to the tress as a scale.
The National Institutes for Health's Image J software program was used for image processing and analysis. […] The curly hair-tress has a contour length of 20 cm, and the top glued part is 2.0 cm wide and is about 0.4 cm of length. Therefore, the effective hair-tress contour length is 19.6 cm.

Series [2] in a line: Solution-dipping screening, flat-iron straightening, shampoo-wash-fastness. More on the design: species or system human. The following applies: used alone under the same conditions. The procedure:
as §1
The shampoo-wash-fastness is carried out by applying shampoo (VO5 or Suave shampoo) on the hair-tress which is massaged for 30 seconds followed by rinsing for 60 seconds with running warm water (32-35° C.). The washed hair-tress is then dried at 23° C. and 50% RH. Consecutive shampoo-wash-cycles are carried out without the drying step.
In the following initial screening test, the examination of thermally straightened hair-tresses is performed by visually examining a tress which has been treated in a solution containing up to 30 wt. % of a candidate thermally-activated agent for 45 minutes, flat-ironed at 210° C. (10×12 seconds). After three consecutive wash cycles, if the dried hair-tress (23° C. and 50% RH) becomes curly, this material is considered not effective, i.e. not worth a further evaluation in a cream formulation.

The nature of series [3]: Solubility in water at room temperature. It is filed as physicochemical. To be noted: room temperature (25° C.).
[4] abbreviates: average over 1-24 shampoos after thermal treatment.
Setting [5] is: thermally-treated tress, equimolar aqueous solution, 45 min soak.
Where [6] appears, read: thermally-treated tress, width at half-length.

In the case of `O=C1NCCO1` [O, 2-oxazolidinone], in series [1] (setting [4]), the “Front: Width1/2” value worked out at 3.9 ± 0.2 cm, the Lengthmax is recorded as 18.4 ± 0.1 cm and the “Side: Width1/2” value was 2.7 ± 0.2 cm. In series [1], the “Ranking for semi-permanent thermal straightening efficiency” value (shortened to “Ranking”) was “GA≈EC≈F≧TC>O>EU>U”; the “Comparative straightening behaviour in words” value was “gives better straightening results than urea (U) and ethylene urea (EU)”. In series [1] (setting [5]), this compound yielded a Lengthmax of 19.3 cm. In addition, in series [1] (setting [6]), the “Front: Width1/2” value came to 3.3 cm and the “Side: Width1/2” value was determined as 1.7 cm.
As to `O=C1NCCN1` [EU, Ethylene Urea], in series [1] (setting [4]), the “Front: Width1/2” value was 4.1 ± 0.2 cm, the Lengthmax turned out to be 18.2 ± 0.2 cm and the “Side: Width1/2” value is recorded as 2.6 ± 0.1 cm. In series [1], the “Ranking” value is “GA≈EC≈F≧TC>O>EU>U” and the “Comparative straightening behaviour in words” value is recorded as “relax the curly hair-tress to some degree”. This compound had a Lengthmax in series [1] (setting [5]) of 19.4 cm. Also, in series [1] (setting [6]), the “Front: Width1/2” value was found to be 3.2 cm and the “Side: Width1/2” value turned out to be 1.6 cm.
For `O=CC(=O)O` [GA, Glyoxylic Acid], the “Front: Width1/2” value in series [1] (setting [4]) is reported as 2.5 ± 0.5 cm; in series [1] (setting [6]), 2.8 cm. In addition, the Lengthmax came to 19.2 ± 0.3 cm in series [1] (setting [4]) and 19.5 cm in series [1] (setting [5]). Also, the “Side: Width1/2” value was determined as 1.4 ± 0.2 cm in series [1] (setting [4]) and 1.2 cm in series [1] (setting [6]). The “Ranking” value in series [1] is “GA≈EC≈F≧TC>O>EU>U”.
As to `CC1COC(=O)O1` (centres unmarked) [PC, propylene carbonate], the “Straightening effectiveness relative to ethylene carbonate” value in series [2] is “less effective”. For the same compound, the Solubility in water entry in series [3] is recorded as “up to 20 wt. %”.
Turning to `O=C1OCC(CO)O1` (centres unmarked) [GC, glycerol carbonate], the “Straightening effectiveness relative to ethylene carbonate” value in series [2] is reported as “less effective”.
`NC(N)=O` [U, Urea]: in series [1] (setting [4]), the “Front: Width1/2” value stood at 5.8 ± 0.2 cm, the Lengthmax is listed as 18.2 ± 0.2 cm and the “Side: Width1/2” value stood at 4.0 ± 0.4 cm. Further, in series [1], the “Ranking” value is “GA≈EC≈F≧TC>O>EU>U” and the “Comparative straightening behaviour in words” value is on record as “relax the curly hair-tress to some degree”. For the same compound, the Lengthmax in series [1] (setting [5]) is listed as 19.6 cm. Further, in series [1] (setting [6]), the “Front: Width1/2” value worked out at 3.6 cm and the “Side: Width1/2” value is 2.0 cm.
Turning to `O=C1OCCO1` [EC, ethylene carbonate], in series [1] (setting [4]), the “Front: Width1/2” value is 2.6 ± 0.1 cm, the Lengthmax was found to be 19.4 ± 0.1 cm and the “Side: Width1/2” value is 1.5 ± 0.1 cm. For the same compound, the “Comparative straightening behaviour in words” value in series [1] is “behave similarly to formaldehyde (F) and glyoxylic acid (GA)”. In addition, the Lengthmax in series [1] (setting [5]) turned out to be 19.4 cm. For the same compound, in series [1] (setting [6]), the “Front: Width1/2” value came to 3.6 cm and the “Side: Width1/2” value was 0.9 cm.
